Results reported in patent publication US20030095990A1, “Microemulsion facial washes comprising specific oils” (Unilever Home & Personal Care USA, Division of Conopco, Inc., priority 2001, published 2003).

How the values were obtained:
[1] = Oil spreading time on human inner forearm (spreadability factor S^R); assay type: physicochemical; details: 4 μL oil, 12 mm×8 mm ellipse on inner forearm; for Relative Spreading Time (spreadability factor S^R): normalized to oleyl oleate, data of present work; for spreading time: two panelists in duplicate
Method: As for oil “spreadability factor”, S^R, a semi-quantitative assay was developed by applicants to determine the spreading time for the different oils that have the potential to be used in microemulsions. First, an elliptic shape with 12 mm×8 mm diameters was marked on the inner forearm of a panelist. Because of the textural orientation of the skin, the spreading trace is usually in an elliptic shape. […] According to the test, 4 μL of the tested oil was dosed in the center of the area. The time when the oil arrived at the marked outline was recorded as the spreading time of the oil. The data were obtained on two panelists with duplicate tests for each oil. The average values were taken as the results. The spreading time of oleyl oleate was than used to normalize the measured values. For example, the spreading time for oleyl oleate is 1.3+0.03 minutes for IPM so the relative spreading time for IPM is 0.5/1.3=0.4. Thus, the spreadability factor, S^R, is ratio of spread rate of selected oil (measured in minutes) to spread rate of oleyl oleate (also measured in minutes).
Using this test, examples of oil spreading times are noted below: […]

[2] = Cognis spreading area over fixed time, converted using oleyl oleate as control; cited from earlier work
[3] = Viscosity, ARES Rheometer, strain controlled mode; assay type: physicochemical; details: 20-23° C.
Excerpt: The ARES Rheometer manufactured by Rheometric Scientific™ was used for measuring viscosities in strain controlled mode. Fluid behavior of the microemulsions is different from conventional skin cleansers. They are Newtonian liquids, so the viscosity is constant with varying shear rate or time. […] As noted, the viscosities of the two microemulsions are much lower than for the competitors' liquid cleansers. However, low viscosity may ease penetration into crevices. Make-up removal efficacy may be directly related to product viscosity, i.e., an increased viscosity of a product caused a reduction in make-up removal. […] Pond's Clear Solutions® Deep Pore Foaming cleanser has an even lower viscosity than the microemulsions. It is packaged in a bottle with aeration upon dispensing, providing a thick and creamy foam. Microemulsions can be used as a cleansing milk or impregnated onto a non-woven.
To simulate the effect of sebum dissolution in washing process on the viscosity of the microemulsion, 2% model sebum was dissolved in microemulsion #1. From the results, one can expect that the good properties of the microemulsion, i.e., solvency and low viscosity, will be maintained during the washing process.

Row | Compound | Relative Spreading Time (spreadability factor S^R) [1] | Relative Spreading Time [2] | further results
1 | CCCCCCCCOCCCCCCCC [Cetiol ® OE: Di-N-Octyl Ether, Di-N-Octyl Ether] | 0.2 |  | 
2 | CCCCCCCCCCC(CO)CCCCCCCC (centres unmarked) [Octyl Dodecanol] |  | 0.7 | 
3 | CCCCCCCC/C=C\CCCCCCCCO [Oleyl Alcohol] |  | 0.6 | 
4 | CCCCCCCC/C=C\CCCCCCCCCCCC(=O)OCCCCCCCC/C=C\CCCCCCCC [Oleyl Eructate] |  | 1.2 | 
5 | O [Water] |  |  | Viscosity at Shear Rate 10 s^−1 [3]: 1 mPa-s
6 | Dioctyl Cyclohexane |  | 0.5 | 

More lines, main results first:

Row | Relative Spreading Time (spreadability factor S^R) [1] | Compound | Relative Spreading Time [2] | further results
7 | 0.9 | CCCCCCCC(=O)OCC(COC(=O)CCCCCCC)OC(=O)CCCCCCC [Glycerol Tricaprylate] |  | 
8 | 0.4 | CCCCCCCCCCCCCC(=O)OC(C)C [Isopropanol Myristrate] | 0.4 | spreading time [1]: 0.5 min
9 | 0.7 | CCCCCCCCCCCCCCCC(=O)OC(C)C [Isopropanol Palmitate] |  | 
10 | 1 | CCCCCCCC/C=C\CCCCCCCCOC(=O)CCCCCCC/C=C\CCCCCCCC [Oleyl Oleate, reference compound] | 1 | spreading time [1]: 1.3 ± 0.03 min
11 | 1.0 | CC(C)CCCC(C)CCCC(C)CCCCC(C)CCCC(C)CCCC(C)C (centres unmarked) [Squalane] |  | 
12 | 0.8 | CC(C)=CCC/C(C)=C/CC/C(C)=C/CC/C=C(\C)CC/C=C(\C)CCC=C(C)C [Squalene] |  | 
13 | 2.5 | Pentahydrosqualene |  | 
